From PubChem BioAssay (NCI)
Several values for one entry are separate records, joined by “and”; a condition that tells them apart may be missing. Equal values may be shown once.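 Growth conditions: 96-well plates. Treatment: test compound, 48 hours, 5 concentrations. Analysis: linear interpolation between bracketing concentrations; unreached endpoints set to highest concentration. GI50 marks 50% less growth. The concentration for full growth arrest is given as TGI.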

Legend:
Experiment in all cases: NCI tumour cell line growth inhibition, 48 h
OVCAR-3 ovarian = tested on: OVCAR-3 ovarian
TK-10 renal = tested on: TK-10 renal
MDA-MB-231 breast = tested on: MDA-MB-231 breast
NCI-H460 lung = tested on: NCI-H460 lung
HOP-62 NSCLC = tested on: HOP-62 NSCLC
A498 renal = tested on: A498 renal
A549 NSCLC = tested on: A549 NSCLC
PC-3 prostate = tested on: PC-3 prostate
UACC-257 melanoma = tested on: UACC-257 melanoma
SK-OV-3 ovarian = tested on: SK-OV-3 ovarian
SF-539 CNS = tested on: SF-539 CNS
786-0 renal = tested on: 786-0 renal
ACHN renal = tested on: ACHN renal
DU-145 prostate = tested on: DU-145 prostate
SK-MEL-28 melanoma = tested on: SK-MEL-28 melanoma
UO-31 renal = tested on: UO-31 renal
SF-268 CNS = tested on: SF-268 CNS
SW-620 colon = tested on: SW-620 colon
HOP-92 NSCLC = tested on: HOP-92 NSCLC
MDA-MB-435 = tested on: MDA-MB-435
M14 melanoma = tested on: M14 melanoma
NCI-H522 lung = tested on: NCI-H522 lung
SNB-75 CNS = tested on: SNB-75 CNS
RXF 393 renal = tested on: RXF 393 renal
SK-MEL-2 melanoma = tested on: SK-MEL-2 melanoma
MOLT-4 leukemia = tested on: MOLT-4 leukemia
CCRF-CEM leukemia = tested on: CCRF-CEM leukemia
SN12C renal = tested on: SN12C renal
NCI-H23 lung = tested on: NCI-H23 lung
HCT-15 colon = tested on: HCT-15 colon
LOX IMVI melanoma = tested on: LOX IMVI melanoma
CAKI-1 renal = tested on: CAKI-1 renal
U251 CNS = tested on: U251 CNS
UACC-62 melanoma = tested on: UACC-62 melanoma
HCT-116 colon = tested on: HCT-116 colon
K-562 leukemia = tested on: K-562 leukemia
HS 578T breast = tested on: HS 578T breast
OVCAR-5 ovarian = tested on: OVCAR-5 ovarian
SNB-19 CNS = tested on: SNB-19 CNS
BT-549 breast = tested on: BT-549 breast
MALME-3M melanoma = tested on: MALME-3M melanoma
HCC-2998 colon = tested on: HCC-2998 colon
SK-MEL-5 melanoma = tested on: SK-MEL-5 melanoma
IGROV1 ovarian = tested on: IGROV1 ovarian
COLO 205 colon = tested on: COLO 205 colon
HT29 colon = tested on: HT29 colon
OVCAR-8 ovarian = tested on: OVCAR-8 ovarian
NCI/ADR-RES ovarian = tested on: NCI/ADR-RES ovarian
NCI-H226 lung = tested on: NCI-H226 lung
OVCAR-4 ovarian = tested on: OVCAR-4 ovarian
SF-295 CNS = tested on: SF-295 CNS
SR leukemia = tested on: SR leukemia
EKVX NSCLC = tested on: EKVX NSCLC
HL-60(TB) leukemia = tested on: HL-60(TB) leukemia
RPMI-8226 leukemia = tested on: RPMI-8226 leukemia

Fc1ccc2c(c1)c(-c1nc(-c3c[nH]c4ncccc34)cs1)cn2CCCCN1CCCCC1
GI50 (OVCAR-3 ovarian): 1.75 µM | TGI (OVCAR-3 ovarian): 3.2 µM | GI50 (TK-10 renal): 2.3 µM | TGI (TK-10 renal): 3.89 µM | GI50 (MDA-MB-231 breast): 1.61 µM | TGI (MDA-MB-231 breast): 3.04 µM | GI50 (NCI-H460 lung): 1.81 µM | TGI (NCI-H460 lung): 3.47 µM | GI50 (HOP-62 NSCLC): 1.53 µM | TGI (HOP-62 NSCLC): 3.01 µM | GI50 (A498 renal): 1.51 µM | TGI (A498 renal): 3.05 µM | GI50 (A549 NSCLC): 1.77 µM | TGI (A549 NSCLC): 3.31 µM | GI50 (PC-3 prostate): 1.49 µM | TGI (PC-3 prostate): 2.89 µM | GI50 (UACC-257 melanoma): 1.76 µM | TGI (UACC-257 melanoma): 3.33 µM | GI50 (SK-OV-3 ovarian): 1.72 µM | TGI (SK-OV-3 ovarian): 3.14 µM | GI50 (SF-539 CNS): 1.61 µM | TGI (SF-539 CNS): 3.02 µM | GI50 (786-0 renal): 1.62 µM | TGI (786-0 renal): 3.07 µM | GI50 (ACHN renal): 1.67 µM | TGI (ACHN renal): 3.1 µM | GI50 (DU-145 prostate): 1.76 µM | TGI (DU-145 prostate): 3.21 µM | GI50 (SK-MEL-28 melanoma): 1.78 µM | TGI (SK-MEL-28 melanoma): 3.32 µM | GI50 (UO-31 renal): 1.23 µM | TGI (UO-31 renal): 2.57 µM | GI50 (SF-268 CNS): 1.63 µM | TGI (SF-268 CNS): 3.22 µM | GI50 (SW-620 colon): 1.74 µM | TGI (SW-620 colon): 3.24 µM | GI50 (HOP-92 NSCLC): 1.16 µM | TGI (HOP-92 NSCLC): 2.48 µM

C[n+]1c2cc(N)ccc2cc2ccc(N)cc21
GI50 (MDA-MB-435): 1.62 µM [middle of 4 runs] | GI50 (M14 melanoma): 1.68 µM [middle of 4 runs] | TGI (M14 melanoma): 3.75 µM [middle of 4 runs] | GI50 (OVCAR-3 ovarian): 1.58 µM [middle of 4 runs] | TGI (OVCAR-3 ovarian): 7.45 µM [middle of 4 runs] | GI50 (NCI-H522 lung): 917 nM [middle of 4 runs] | TGI (NCI-H522 lung): 3.68 µM [middle of 4 runs] | GI50 (SNB-75 CNS): 1.55 µM [middle of 4 runs] | TGI (SNB-75 CNS): 4.05 µM [middle of 4 runs] | TGI (RXF 393 renal): 3.59 µM [middle of 4 runs] | GI50 (TK-10 renal): 1.43 µM [middle of 4 runs] | TGI (TK-10 renal): 9.33 µM [middle of 4 runs] | GI50 (MDA-MB-231 breast): 1.41 µM [middle of 4 runs] | TGI (MDA-MB-231 breast): 9.68 µM [middle of 4 runs] | GI50 (NCI-H460 lung): 460 nM [middle of 4 runs] | TGI (HOP-62 NSCLC): 2.45 µM and 10.7 µM and 3.7 µM | GI50 (A498 renal): 0.162 µM and 0.152 µM and 0.0719 µM | TGI (A498 renal): 0.795 µM and 0.599 µM and 0.492 µM | GI50 (SK-MEL-2 melanoma): 1.47 µM [middle of 4 runs] | TGI (SK-MEL-2 melanoma): 5 µM [middle of 4 runs] | GI50 (MOLT-4 leukemia): 547 nM [middle of 4 runs] | GI50 (CCRF-CEM leukemia): 2.1 µM [middle of 4 runs] | GI50 (A549 NSCLC): 256 nM [middle of 4 runs] | GI50 (SN12C renal): 701 nM [middle of 4 runs] | TGI (SN12C renal): 4.03 µM [middle of 4 runs] | GI50 (PC-3 prostate): 696 nM [middle of 4 runs] | TGI (PC-3 prostate): 5.8 µM [middle of 4 runs] | GI50 (NCI-H23 lung): 1.27 µM [middle of 4 runs] | TGI (NCI-H23 lung): 4.49 µM [middle of 4 runs] | GI50 (HCT-15 colon): 2.41 µM [middle of 4 runs] | TGI (HCT-15 colon): 15.2 µM [middle of 4 runs] | GI50 (LOX IMVI melanoma): 0.956 µM and 2.26 µM and 1.82 µM | TGI (LOX IMVI melanoma): 5.52 µM [middle of 4 runs] | GI50 (CAKI-1 renal): 1.04 µM [middle of 4 runs] | TGI (CAKI-1 renal): 9.03 µM [middle of 4 runs] | GI50 (U251 CNS): 733 nM [middle of 4 runs] | TGI (U251 CNS): 4.22 µM [middle of 4 runs] | GI50 (UACC-62 melanoma): 1.26 µM [middle of 4 runs] | TGI (UACC-62 melanoma): 2.86 µM [middle of 4 runs] | GI50 (HCT-116 colon): 622 nM [middle of 4 runs] | TGI (HCT-116 colon): 5.55 µM and 11.1 µM and 5.51 µM | GI50 (UACC-257 melanoma): 1.79 µM [middle of 4 runs] | TGI (UACC-257 melanoma): 3.91 µM [middle of 4 runs] | GI50 (K-562 leukemia): 1.18 µM [middle of 4 runs] | GI50 (HS 578T breast): 1.54 µM [middle of 4 runs] | TGI (HS 578T breast): 6.31 µM [middle of 4 runs] | GI50 (SF-539 CNS): 1.33 µM [middle of 4 runs] | TGI (SF-539 CNS): 3.69 µM [middle of 4 runs] | GI50 (786-0 renal): 1.33 µM [middle of 4 runs] | GI50 (OVCAR-5 ovarian): 1.1 µM [middle of 4 runs] | GI50 (SNB-19 CNS): 933 nM [middle of 4 runs] | TGI (SNB-19 CNS): 5.01 µM [middle of 4 runs] | GI50 (BT-549 breast): 1.61 µM [middle of 4 runs] | TGI (BT-549 breast): 4.05 µM [middle of 4 runs] | GI50 (MALME-3M melanoma): 763 nM [middle of 4 runs] | TGI (MALME-3M melanoma): 2.86 µM [middle of 4 runs] | GI50 (HCC-2998 colon): 925 nM [middle of 4 runs] | TGI (HCC-2998 colon): 3.43 µM [middle of 4 runs] | GI50 (ACHN renal): 1 µM [middle of 4 runs] | GI50 (SK-MEL-5 melanoma): 1.23 µM [middle of 4 runs] | TGI (SK-MEL-5 melanoma): 2.57 µM [middle of 4 runs] | GI50 (IGROV1 ovarian): 1.46 µM [middle of 4 runs] | GI50 (DU-145 prostate): 1.36 µM [middle of 4 runs] | TGI (DU-145 prostate): 5.57 µM [middle of 4 runs] | GI50 (SK-MEL-28 melanoma): 1.96 µM [middle of 4 runs] | TGI (SK-MEL-28 melanoma): 4.78 µM [middle of 4 runs] | GI50 (COLO 205 colon): 441 nM [middle of 4 runs] | GI50 (HT29 colon): 1 µM [middle of 4 runs] | TGI (HT29 colon): 2.72 µM and 13.3 µM and 3.15 µM | GI50 (OVCAR-8 ovarian): 565 nM [middle of 4 runs] | GI50 (NCI/ADR-RES ovarian): 2.72 µM [middle of 4 runs] | GI50 (SF-268 CNS): 572 nM [middle of 4 runs] | TGI (SF-268 CNS): 3.47 µM [middle of 4 runs] | GI50 (SW-620 colon): 198 nM [middle of 4 runs] | GI50 (NCI-H226 lung): 882 nM [middle of 4 runs] | TGI (NCI-H226 lung): 3.98 µM [middle of 4 runs] | TGI (HOP-92 NSCLC): 5.78 µM [middle of 4 runs] | GI50 (OVCAR-4 ovarian): 1.34 µM [middle of 4 runs] | TGI (SF-295 CNS): 5.63 µM [middle of 4 runs] | GI50 (SR leukemia): 687 nM [middle of 4 runs] | GI50 (EKVX NSCLC): 0.263 µM and 0.831 µM and 0.261 µM | TGI (EKVX NSCLC): 2.31 µM [middle of 4 runs] | GI50 (HL-60(TB) leukemia): 2.83 µM [middle of 4 runs] | TGI (HL-60(TB) leukemia): 9.76 µM [middle of 4 runs] | GI50 (RPMI-8226 leukemia): 1.89 µM [middle of 4 runs]
